One assay deals with normal mice. Briefly: Effect of compound B on blood sugar in normal mice. Format: in vivo. As to conditions: for Value of blood sugar: dose 100 mg/kg. As for the experimental part:
The positive control group orally took tolbutol at 100 mg/kg. The blank control group took orally same distilled water. The volume of medicine given is 20 ml/kg, lasting 14 days. The test drug was administered (provided that they are pre-forbidden to give food 5 hrs before administration) after the days 1, 3, 7, 14 of administration. 3 hrs after administration, blood (10 ul) was taken from the eyepit. The content of dextrose in serum was measured by reagent box.

For a further assay, the system named is Female SD rats. Kind of assay: Effect on increasing blood sugar in rats caused by sucrose. As to conditions: for Value of blood sugar: dose 100 mg/kg. The format is in vivo, rat. As for the experimental part: Female SD rats fasted for 24 hours and were randomly divided into several groups. […] The normal group, control group and blank group were given the same amount of water. The given medicine volume was […], after 30 minutes each group was given saccharose 1/kg(5 ml/kg) except the normal group, and blood was extracted from the eyes of rats after 30, 60 and 120 minutes respectively, the content of glucose in the serum was measured.

Assay [1] concerns blood platelet aggregation in rabbits. Briefly: Effect of compound B on blood platelet aggregation in rabbits in vitro (ADP). The format is cell-based, rabbit. As for the experimental part:
Blood was taken from rabbit heart by puncture, to which was added 3.8% potassium citrate for anticoagulation (1:9). Certification for 15 minute at 1000 rpm takes the upper layer as rich blood platelet plasma (prp), and then centrifugation for 10 minutes with 4000 rpm takes the supernatant as poor blood platelet plasma (ppp). […] 10 μl physiological brine of aspirin was added to a positive control tube, then it was put into a measuring cell after warming for 2 minutes at 37° C. 10 ul of physiological brine solution of ADP sodium salt was added with stirring. The final concentration is […]. The maximal aggregation ratio on PAM-1 type of blood platelet instrument was observed within 3 minutes.

The test system of another assay is rabbit's blood platelets. Kind of assay: Effect of compound F on aggregation of rabbit's blood platelets in vitro. The format is cell-based. The procedure: Effect of Compound F on Blood Platelet Aggregation in Rabbit
Take blood from rabbit heart by puncturing, add 3.8% of potassium citrate for anticoagulation (1:9), centrifuge for 15 minutes at 1000 rpm, take the upper layer as blood platelet rich plasma (prp), and then centrifuge for 10 minutes at […], and take supematant as blood platelet poor plasma (ppp). The final concentration of compound F is respectively 250, 500, 1000 μg/ml, and the final concentration is respectively 250, 500, 1000 ug/ml. Add 10 ul of physical brine of aspirin to the positive-control tube to a final concentration of 250 μg/ml, and add 10 μl of physical brine to the control tube […]. Observe the maximal aggregation ratio on PAM-1 type instrument of blood platelet aggregation within 3 minute.

For assay [2], the system named is Male Kun Ming strain mice. Kind of assay: Effect of compound F on blood sugar elevation after oral dextrose. The format is in vivo. As to conditions: dose 50 mg/kg oral, 7 days. As for the experimental part: Effect of compound F on blood sugar elevation in rat.
Male Kun Ming strain mice are divided into randomly experimental groups, and they respectively took orally the compound F at […]. The positive control group took orally glybenclamide 50 mg/kg, and the blank control group and normal control group take orally the same distilled water. The volume of medicine given is 20 ml/kg, lasting 7 days. They are forbidden to give feedstuff 10 hours before the last time of administration. Each group is given 2.5 g/kg (10 ml/kg) dextrose solution except of normal control group. Before and after 30 minute of administration of dextrose, 100 ul of blood was sampled from the eyepit, and the content of dextrose in serum was measured by way of dextrose oxygenation enzyme.

Structures are written as SMILES.

Regarding `CCCCNC(=O)NS(=O)(=O)c1ccc(C)cc1` [tolbutol], the “Effect on blood sugar of normal mice (in words)” value in the assay with normal mice (Compound B 50, 100, 200 mg/kg for 14 days, tolbutol from day 3) is “obvious effect for lowering the blood sugar of normal mice”. Also, the “Value of blood sugar” value in the assay on normal mice (day 1) is reported as 6.48 ± 1.18; with normal mice (day 3), 5.22 ± 0.80; in the assay with normal mice (day 7), 6.62 ± 0.96; in the assay on normal mice (day 14), 5.75 ± 1.02.

Take `[H]/N=C(/N)N/C(=N/[H])NCCc1ccccc1` [phenformin]: the “Effect on the increased value of blood sugar (in words)” value in the assay with Female SD rats (compound B 200 mg/kg, performing 100 mg/kg, within 30 minutes) is “reduce the increased value of blood sugar remarkably”. Also, the “Value of blood sugar” value with Female SD rats (30 minutes after sucrose) is on record as 4.24 ± 0.87 mmol/L; with Female SD rats (60 minutes after sucrose), 4.74 ± 0.90 mmol/L; in the assay on Female SD rats (120 minutes after sucrose) it was 4.79 ± 1.03 mmol/L.

Take `CC(=O)Oc1ccccc1C(=O)O` [Aspirin, aspirin]: the “Inhibition of blood platelet aggregation (in words)” value in assay [1] (compound B 500, 1000 μg/ml, aspirin 250 μg/ml) is listed as “obviously inhibit blood platelet from aggregating”. For the same compound, the Inhibition ratio in assay [1] (final concentration 250) is recorded as 50.3. The “Maximal aggregation ratio (%)” value in assay [1] (final concentration 250 (μg/ml), ADP, within 3 minutes) turned out to be 23.7 ± 6.0 %. In addition, in the assay with rabbit's blood platelets (Oryctolagus cuniculus, Platelet, final concentration 250 μg/ml, read-out: Inhibition rate (%)), the inhibition (in general, the relative decrease from the control value, in per cent) at 250 µg/mL came out at 50.3%. In the assay on rabbit's blood platelets (compound F 500, 1000 μg/ml, aspirin 250 μg/ml), the “Inhibition of aggregation of blood platelet (in words)” value is reported as “obviously inhibit the aggregation of blood platelet”. The “Maximal aggregation rate (%)” value with rabbit's blood platelets (final concentration 250 μg/ml, within 3 minute) was 23.7 ± 6.0 %.

In the case of `COc1ccc(Cl)cc1C(=O)NCCc1ccc(S(=O)(=O)NC(=O)NC2CCCCC2)cc1` [glybenclamide], the “Value of blood sugar” value in assay [2] (0 minute (before dextrose)) amounted to 4.48 ± 0.83; in assay [2] (30 minutes after dextrose), 8.18 ± 1.72.
